Measured values published in PubChem BioAssay AID220 (DTP/NCI, 2004).
Results filed as inconclusive are left out.

System: CD8F1 mice, subcutaneous mammary adenocarcinoma, T/C%
Experiment: NCI In Vivo Anticancer Drug Screen. Data for tumor model Mammary Adenocarcinoma CD8F1 (subcutaneous) in CD8F1
Conditions: higher = larger tumour
Summary of the method: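 Mice carrying transplanted tumors received test compound, and survival or tumor size was recorded. Each value is the treated-group measurement divided by the corresponding measurement in vehicle-dosed controls.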

For Cc1ccoc1, the T/C (endpoint: median tumor weight change, dose: 20.8 mg/kg/injection, schedule: Q03HX003 (ip), vehicle: saline with Tween-80) was 66 % of control, the T/C (endpoint: median tumor weight change, dose: 41.6 mg/kg/injection, schedule: Q03HX003 (ip), vehicle: saline with Tween-80) was 82 % of control and the T/C (endpoint: median tumor weight change, dose: 83.3 mg/kg/injection, schedule: Q03HX003 (ip), vehicle: saline with Tween-80) was 62 % of control. For the same compound, the T/C (endpoint: median tumor weight change, dose: 166.6 mg/kg/injection, schedule: Q03HX003 (ip), vehicle: saline with Tween-80) was 73 % of control.

CCc1ncnc2cc(OCC3CO3)c(OC)cc12 (stereo not drawn) was tested, and the T/C (endpoint: median tumor weight change, dose: 25.0 mg/kg/injection, schedule: Q01DX001 (ip), vehicle: suspension in saline) was 118 % of control, the T/C (endpoint: median tumor weight change, dose: 50.0 mg/kg/injection, schedule: Q01DX001 (ip), vehicle: suspension in saline) was 110 % of control and the T/C (endpoint: median tumor weight change, dose: 100.0 mg/kg/injection, schedule: Q01DX001 (ip), vehicle: suspension in saline) was 35 % of control. For the same compound, the T/C (endpoint: median tumor weight change, dose: 400.0 mg/kg/injection, schedule: Q01DX001 (ip), vehicle: suspension in saline) was 93 % of control.

COc1ccc2[nH]c3c(c2c1)CCNC3CC(C)CCC=C(C)C (stereo not drawn) was tested, and the T/C (endpoint: median tumor weight change, dose: 15.62 mg/kg/injection, schedule: Q01DX001 (ip), vehicle: Klucel (hydroxypropylcellulose) (HPC)) was 118 % of control, the T/C (endpoint: median tumor weight change, dose: 25.0 mg/kg/injection, schedule: Q01DX001 (ip), vehicle: Klucel (hydroxypropylcellulose) (HPC)) was 100 % of control and the T/C (endpoint: median tumor weight change, dose: 31.25 mg/kg/injection, schedule: Q01DX001 (ip), vehicle: Klucel (hydroxypropylcellulose) (HPC)) was 197 % of control. For the same compound, the T/C (endpoint: median tumor weight change, dose: 50.0 mg/kg/injection, schedule: Q01DX001 (ip), vehicle: Klucel (hydroxypropylcellulose) (HPC)) was 64 % of control, the T/C (endpoint: median tumor weight change, dose: 100.0 mg/kg/injection, schedule: Q01DX001 (ip), vehicle: Klucel (hydroxypropylcellulose) (HPC)) was 51 % of control and the T/C (endpoint: median tumor weight change, dose: 125.0 mg/kg/injection, schedule: Q01DX001 (ip), vehicle: Klucel (hydroxypropylcellulose) (HPC)) was 159 % of control.

In the case of N=c1ccn2c(n1)OC1C(O)C(CO)OC12 (stereo not drawn), the T/C (endpoint: median tumor weight (est.), dose: 25.0 mg/kg/injection, schedule: Q07DX005 (ip), vehicle: saline) is reported as 80 % of control, the T/C (endpoint: median tumor weight (est.), dose: 50.0 mg/kg/injection, schedule: Q07DX005 (ip), vehicle: saline) is reported as 159 % of control and the T/C (endpoint: median tumor weight (est.), dose: 100.0 mg/kg/injection, schedule: Q07DX005 (ip), vehicle: saline) is reported as 111 % of control. For the same compound, the T/C (endpoint: median tumor weight (est.), dose: 100.0 mg/kg/injection, schedule: Q07DX005 (ip), vehicle: suspension in saline) was 81 % of control, the T/C (endpoint: median tumor weight (est.), dose: 200.0 mg/kg/injection, schedule: Q07DX005 (ip), vehicle: saline) was 53 % of control and the T/C (endpoint: median tumor weight (est.), dose: 200.0 mg/kg/injection, schedule: Q07DX005 (ip), vehicle: suspension in saline) was 109 % of control. For the same compound, the T/C (endpoint: median tumor weight (est.), dose: 400.0 mg/kg/injection, schedule: Q07DX005 (ip), vehicle: saline) was 22 % of control, the T/C (endpoint: median tumor weight (est.), dose: 400.0 mg/kg/injection, schedule: Q07DX005 (ip), vehicle: suspension in saline) was 70 % of control and the T/C (endpoint: median tumor weight (est.), dose: 600.0 mg/kg/injection, schedule: Q07DX005 (ip), vehicle: saline) was 21 % of control. For the same compound, the T/C (endpoint: median tumor weight (est.), dose: 800.0 mg/kg/injection, schedule: Q07DX005 (ip), vehicle: suspension in saline) was 52 % of control and the T/C (endpoint: median tumor weight (est.), dose: 1600.0 mg/kg/injection, schedule: Q07DX005 (ip), vehicle: suspension in saline) was 35 % of control.

For CCOC(=O)c1[nH]c2cccc3c2c1CC(Br)C3=O (stereo not drawn), the T/C (endpoint: median tumor weight change, dose: 125.0 mg/kg/injection, schedule: Q01DX001 (ip), vehicle: saline with Tween-80) was 86 % of control and the T/C (endpoint: median tumor weight change, dose: 250.0 mg/kg/injection, schedule: Q01DX001 (ip), vehicle: saline with Tween-80) was 52 % of control.

In the case of CCC1(O)CC2CN(CCc3c([nH]c4ccccc34)C(C(=O)OC)(c3cc4c(cc3OC)N(C)C3C(O)(C(=O)NCCSSCCNC(=O)C5(O)C(O)C6(CC)C=CCN7CCC8(c9cc(C%10(C(=O)OC)CC%11CN(CCc%12c%10[nH]c%10ccccc%12%10)CC(O)(CC)C%11)c(OC)cc9N(C)C58)C76)C(O)C5(CC)C=CCN6CCC43C65)C2)C1 (stereo not drawn), the T/C (endpoint: median tumor weight change, dose: 1.9 mg/kg/injection, schedule: Q01DX001 (ip), vehicle: saline) is reported as 45 % of control.

c1ccc(SSc2ccccn2)nc1 was tested, and the T/C (endpoint: mean tumor weight, dose: 25.0 mg/kg/injection, schedule: Q07DX006 (ip), vehicle: saline) was 123 % of control and the T/C (endpoint: mean tumor weight, dose: 100.0 mg/kg/injection, schedule: Q07DX006 (ip), vehicle: saline) was 159 % of control.

NC(=O)Oc1cccc(OC(N)=O)c1 was tested, and the T/C (endpoint: mean tumor weight, dose: 50.0 mg/kg/injection, schedule: Q07DX006 (ip), vehicle: water) was 161 % of control, the T/C (endpoint: mean tumor weight, dose: 100.0 mg/kg/injection, schedule: Q07DX006 (ip), vehicle: water) was 56 % of control and the T/C (endpoint: mean tumor weight, dose: 200.0 mg/kg/injection, schedule: Q07DX006 (ip), vehicle: water) was 73 % of control. The T/C (endpoint: mean tumor weight, dose: 400.0 mg/kg/injection, schedule: Q07DX006 (ip), vehicle: water) was 93 % of control, the T/C (endpoint: median tumor weight (est.), dose: 25.0 mg/kg/injection, schedule: Q07DX005 (ip), vehicle: water) was 99 % of control and the T/C (endpoint: median tumor weight (est.), dose: 50.0 mg/kg/injection, schedule: Q07DX005 (ip), vehicle: water) was 105 % of control. The T/C (endpoint: median tumor weight (est.), dose: 200.0 mg/kg/injection, schedule: Q07DX005 (ip), vehicle: water) was 106 % of control and the T/C (endpoint: median tumor weight (est.), dose: 400.0 mg/kg/injection, schedule: Q07DX005 (ip), vehicle: water) was 63 % of control.
